17 molecules from the kinase profiling compilation of Christmann-Franck et al. (2016) can be followed below.

By IC50 is commonly meant the point on the concentration scale where inhibition reaches its midpoint.

Assay [1] has as its target HIPK1 (human) (UniProt Q86Z02). The assay is described as follows: SelectScreen, TR FRET. On the technique in general: TR-FRET usually uses a lanthanide donor and a delayed reading to cut background.
The target of the next assay is HIPK2 (human) (UniProt Q9H2X6). The assay is described as follows: SelectScreen, TR FRET.
In assay [2] the target is PIM2 (human) (UniProt Q9P1W9). Briefly: SelectScreen, TR FRET.
Assay [3] has as its target PIM1 (human) (UniProt P11309). The assay is described as follows: SelectScreen, TR FRET.
The target in a further assay is DCLK1 (human) (UniProt O15075). Briefly: KINOMEscan competition binding. The note with it: compound 10.0 µM.
The target in another assay is STK33 (human) (UniProt Q9BYT3). The assay is described as follows: KINOMEscan competition binding. Conditions: compound 10.0 µM.
In the next assay the target is CAMK2A (human) (UniProt Q9UQM7). Briefly: KINOMEscan competition binding. The note with it: compound 10.0 µM.
In the next assay the target is CAMK2D (human) (UniProt Q13557). The assay is described as follows: KINOMEscan competition binding. Conditions: compound 10.0 µM.
The target of a further assay is CAMK2G (human) (UniProt Q13555). Briefly: KINOMEscan competition binding. The note with it: compound 10.0 µM.
For a further assay, the target named is PLK1 (human) (UniProt P53350). The assay is described as follows: KINOMEscan competition binding. The note with it: compound 10.0 µM.
The next assay concerns the target MYLK (human) (UniProt Q15746). The assay is described as follows: KINOMEscan competition binding. Conditions: compound 10.0 µM.
In another assay the target is MKNK2 (human) (UniProt Q9HBH9). Briefly: KINOMEscan competition binding. Conditions: compound 10.0 µM.
In the next assay the target is CLK2 (human) (UniProt P49760). Briefly: KINOMEscan competition binding. The note with it: compound 10.0 µM.
Assay [4] has as its target HIPK1 (human) (UniProt Q86Z02). Briefly: KINOMEscan competition binding. Conditions: compound 10.0 µM.
The target in another assay is RPS6KA4 KD2 (human) (UniProt O75676). The assay is described as follows: KINOMEscan competition binding. The note with it: compound 10.0 µM.
For the next assay, the target named is MAPK15 (human) (UniProt Q8TD08). The assay is described as follows: KINOMEscan competition binding. The note with it: compound 10.0 µM.
A further assay has as its target TGFBR2 (human) (UniProt P37173). Briefly: KINOMEscan competition binding. The note with it: compound 10.0 µM.
The target in a further assay is TAOK1 (human) (UniProt Q7L7X3). The assay is described as follows: KINOMEscan competition binding. Conditions: compound 10.0 µM.
For another assay, the target named is STK17A (human) (UniProt Q9UEE5). Briefly: KINOMEscan competition binding. Conditions: compound 10.0 µM.
The target of assay [5] is PIM2 (human) (UniProt Q9P1W9). The assay is described as follows: KINOMEscan competition binding. Conditions: compound 10.0 µM.
The next assay has as its target DAPK2 (human) (UniProt Q9UIK4). Briefly: KINOMEscan competition binding. The note with it: compound 10.0 µM.
For the next assay, the target named is DYRK1B (human) (UniProt Q9Y463). Briefly: KINOMEscan competition binding. Conditions: compound 10.0 µM.
The target of another assay is CAMKK1 (human) (UniProt Q8N5S9). Briefly: KINOMEscan competition binding. The note with it: compound 10.0 µM.
The target in another assay is CLK4 (human) (UniProt Q9HAZ1). Briefly: KINOMEscan competition binding. Conditions: compound 10.0 µM.
The subject of assay [6] is PIK3CA (human), P42336 [E545K]. The assay is described as follows: KINOMEscan competition binding. The note with it: compound 10.0 µM.
Another assay deals with TAOK3 (human) (UniProt Q9H2K8). The assay is described as follows: KINOMEscan competition binding. Conditions: compound 10.0 µM.
The next assay addresses PIM3 (human) (UniProt Q86V86). The assay is described as follows: KINOMEscan competition binding. The note with it: compound 10.0 µM.
The target in another assay is CDK7 (human) (UniProt P50613). The assay is described as follows: KINOMEscan competition binding. The note with it: compound 10.0 µM.
Another assay has as its target STK17B (human) (UniProt O94768). The assay is described as follows: KINOMEscan competition binding. Conditions: compound 10.0 µM.
Another assay addresses MINK1 (human) (UniProt Q8N4C8). Briefly: KINOMEscan competition binding. Conditions: compound 10.0 µM.
A further assay addresses CLK1 (human) (UniProt P49759). Briefly: KINOMEscan competition binding. The note with it: compound 10.0 µM.
The target in assay [7] is PIM1 (human) (UniProt P11309). The assay is described as follows: KINOMEscan competition binding. The note with it: compound 10.0 µM.
The next assay deals with CSNK2A1 (human) (UniProt P68400). The assay is described as follows: KINOMEscan competition binding. Conditions: compound 10.0 µM.
The target of the next assay is MAP2K3 (human) (UniProt P46734). Briefly: KINOMEscan competition binding. Conditions: compound 10.0 µM.
A further assay concerns the target MAP2K4 (human) (UniProt P45985). Briefly: KINOMEscan competition binding. The note with it: compound 10.0 µM.
In a further assay the target is CAMKK2 (human) (UniProt Q96RR4). The assay is described as follows: KINOMEscan competition binding. Conditions: compound 10.0 µM.
A further assay concerns the target PTK2B (human) (UniProt Q14289). The assay is described as follows: KINOMEscan competition binding. Conditions: compound 10.0 µM.
In the next assay the target is DCLK2 (human) (UniProt Q8N568). Briefly: KINOMEscan competition binding. Conditions: compound 10.0 µM.
In a further assay the target is PIK3CG (human) (UniProt P48736). Briefly: KINOMEscan competition binding. The note with it: compound 10.0 µM.
The target of a further assay is CSNK2A2 (human) (UniProt P19784). Briefly: KINOMEscan competition binding. The note with it: compound 10.0 µM.

Chain of PIK3CA (human), P42336 [E545K] (P42336 whole entry E545K, looked up): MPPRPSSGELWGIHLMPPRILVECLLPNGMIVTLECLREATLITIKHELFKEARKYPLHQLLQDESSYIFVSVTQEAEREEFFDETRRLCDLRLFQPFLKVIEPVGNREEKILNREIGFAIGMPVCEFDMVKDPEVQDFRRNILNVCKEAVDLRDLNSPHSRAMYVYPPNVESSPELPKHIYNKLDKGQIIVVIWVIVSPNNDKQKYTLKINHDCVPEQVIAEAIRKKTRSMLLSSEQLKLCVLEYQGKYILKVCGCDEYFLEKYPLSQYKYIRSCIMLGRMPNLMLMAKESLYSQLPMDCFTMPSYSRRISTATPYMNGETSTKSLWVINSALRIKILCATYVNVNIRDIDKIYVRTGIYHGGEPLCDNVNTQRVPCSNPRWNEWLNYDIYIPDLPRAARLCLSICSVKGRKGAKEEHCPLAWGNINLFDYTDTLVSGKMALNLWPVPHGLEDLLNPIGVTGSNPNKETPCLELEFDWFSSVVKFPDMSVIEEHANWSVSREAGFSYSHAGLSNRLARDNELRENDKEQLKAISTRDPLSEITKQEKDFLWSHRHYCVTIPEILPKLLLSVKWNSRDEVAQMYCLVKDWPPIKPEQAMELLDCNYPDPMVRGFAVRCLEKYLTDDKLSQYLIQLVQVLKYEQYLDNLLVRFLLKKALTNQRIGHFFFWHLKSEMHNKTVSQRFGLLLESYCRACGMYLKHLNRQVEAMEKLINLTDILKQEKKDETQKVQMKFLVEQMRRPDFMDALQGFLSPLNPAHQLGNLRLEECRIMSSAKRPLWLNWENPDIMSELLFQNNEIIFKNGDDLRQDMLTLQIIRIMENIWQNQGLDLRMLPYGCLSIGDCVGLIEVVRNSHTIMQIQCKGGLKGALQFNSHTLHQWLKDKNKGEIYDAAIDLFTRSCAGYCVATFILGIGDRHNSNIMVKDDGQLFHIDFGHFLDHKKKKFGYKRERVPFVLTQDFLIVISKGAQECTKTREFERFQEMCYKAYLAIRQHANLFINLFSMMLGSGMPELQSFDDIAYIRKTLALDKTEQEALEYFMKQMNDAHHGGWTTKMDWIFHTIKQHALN
Chain of HIPK1 (human) (Q86Z02 whole entry, looked up): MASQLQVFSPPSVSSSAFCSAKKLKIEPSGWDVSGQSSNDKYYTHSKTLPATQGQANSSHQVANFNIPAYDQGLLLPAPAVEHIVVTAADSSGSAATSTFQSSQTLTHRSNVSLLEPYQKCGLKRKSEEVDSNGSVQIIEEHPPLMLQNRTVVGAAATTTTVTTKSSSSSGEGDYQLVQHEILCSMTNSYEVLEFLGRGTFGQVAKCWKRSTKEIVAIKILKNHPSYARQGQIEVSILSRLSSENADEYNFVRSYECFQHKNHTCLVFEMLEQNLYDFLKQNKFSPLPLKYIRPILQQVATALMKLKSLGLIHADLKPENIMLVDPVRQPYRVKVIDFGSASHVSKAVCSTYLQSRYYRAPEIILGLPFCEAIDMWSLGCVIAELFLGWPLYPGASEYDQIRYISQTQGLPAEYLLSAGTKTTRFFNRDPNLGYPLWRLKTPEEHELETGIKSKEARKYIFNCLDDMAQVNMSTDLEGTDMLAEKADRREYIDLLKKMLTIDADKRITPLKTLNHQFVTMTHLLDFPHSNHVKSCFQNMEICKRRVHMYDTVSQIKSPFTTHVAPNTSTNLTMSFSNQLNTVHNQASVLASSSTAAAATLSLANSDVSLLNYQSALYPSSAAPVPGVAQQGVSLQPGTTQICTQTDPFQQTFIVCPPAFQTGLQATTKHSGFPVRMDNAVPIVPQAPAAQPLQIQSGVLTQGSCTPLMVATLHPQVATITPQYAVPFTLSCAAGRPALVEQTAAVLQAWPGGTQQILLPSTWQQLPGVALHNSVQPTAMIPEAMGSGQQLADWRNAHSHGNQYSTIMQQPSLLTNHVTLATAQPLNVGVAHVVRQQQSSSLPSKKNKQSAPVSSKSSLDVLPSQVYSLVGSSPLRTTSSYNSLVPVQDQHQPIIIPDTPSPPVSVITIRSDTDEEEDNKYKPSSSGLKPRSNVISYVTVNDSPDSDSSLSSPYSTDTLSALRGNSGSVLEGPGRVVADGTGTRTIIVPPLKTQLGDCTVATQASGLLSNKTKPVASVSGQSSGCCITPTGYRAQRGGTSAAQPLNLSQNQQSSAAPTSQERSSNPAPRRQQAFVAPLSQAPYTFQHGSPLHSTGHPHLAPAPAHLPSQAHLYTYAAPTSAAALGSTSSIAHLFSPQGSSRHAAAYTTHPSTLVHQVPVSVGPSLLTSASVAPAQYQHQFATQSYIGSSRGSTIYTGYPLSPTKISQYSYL
Chain of PIM2 (human) (Q9P1W9 whole entry, looked up): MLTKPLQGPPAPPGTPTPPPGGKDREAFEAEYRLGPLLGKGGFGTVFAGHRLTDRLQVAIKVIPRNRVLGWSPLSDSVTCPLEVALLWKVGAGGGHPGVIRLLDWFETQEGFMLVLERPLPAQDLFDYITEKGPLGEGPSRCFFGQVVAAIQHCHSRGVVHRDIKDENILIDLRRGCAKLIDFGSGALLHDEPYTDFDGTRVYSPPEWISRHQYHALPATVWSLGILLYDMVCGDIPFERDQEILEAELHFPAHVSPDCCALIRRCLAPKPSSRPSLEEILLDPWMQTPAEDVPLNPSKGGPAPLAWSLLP
Chain of PIM1 (human) (P11309 whole entry, looked up): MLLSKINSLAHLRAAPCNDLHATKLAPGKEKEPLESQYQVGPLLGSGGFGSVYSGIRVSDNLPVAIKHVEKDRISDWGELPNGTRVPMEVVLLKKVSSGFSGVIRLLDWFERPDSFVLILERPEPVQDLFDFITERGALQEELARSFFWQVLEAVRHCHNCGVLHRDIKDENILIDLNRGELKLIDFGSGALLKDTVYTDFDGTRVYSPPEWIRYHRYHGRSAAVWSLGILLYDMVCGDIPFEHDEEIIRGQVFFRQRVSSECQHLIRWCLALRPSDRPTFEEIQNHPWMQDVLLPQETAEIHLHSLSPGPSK
Chain of HIPK2 (human) (Q9H2X6 whole entry, looked up): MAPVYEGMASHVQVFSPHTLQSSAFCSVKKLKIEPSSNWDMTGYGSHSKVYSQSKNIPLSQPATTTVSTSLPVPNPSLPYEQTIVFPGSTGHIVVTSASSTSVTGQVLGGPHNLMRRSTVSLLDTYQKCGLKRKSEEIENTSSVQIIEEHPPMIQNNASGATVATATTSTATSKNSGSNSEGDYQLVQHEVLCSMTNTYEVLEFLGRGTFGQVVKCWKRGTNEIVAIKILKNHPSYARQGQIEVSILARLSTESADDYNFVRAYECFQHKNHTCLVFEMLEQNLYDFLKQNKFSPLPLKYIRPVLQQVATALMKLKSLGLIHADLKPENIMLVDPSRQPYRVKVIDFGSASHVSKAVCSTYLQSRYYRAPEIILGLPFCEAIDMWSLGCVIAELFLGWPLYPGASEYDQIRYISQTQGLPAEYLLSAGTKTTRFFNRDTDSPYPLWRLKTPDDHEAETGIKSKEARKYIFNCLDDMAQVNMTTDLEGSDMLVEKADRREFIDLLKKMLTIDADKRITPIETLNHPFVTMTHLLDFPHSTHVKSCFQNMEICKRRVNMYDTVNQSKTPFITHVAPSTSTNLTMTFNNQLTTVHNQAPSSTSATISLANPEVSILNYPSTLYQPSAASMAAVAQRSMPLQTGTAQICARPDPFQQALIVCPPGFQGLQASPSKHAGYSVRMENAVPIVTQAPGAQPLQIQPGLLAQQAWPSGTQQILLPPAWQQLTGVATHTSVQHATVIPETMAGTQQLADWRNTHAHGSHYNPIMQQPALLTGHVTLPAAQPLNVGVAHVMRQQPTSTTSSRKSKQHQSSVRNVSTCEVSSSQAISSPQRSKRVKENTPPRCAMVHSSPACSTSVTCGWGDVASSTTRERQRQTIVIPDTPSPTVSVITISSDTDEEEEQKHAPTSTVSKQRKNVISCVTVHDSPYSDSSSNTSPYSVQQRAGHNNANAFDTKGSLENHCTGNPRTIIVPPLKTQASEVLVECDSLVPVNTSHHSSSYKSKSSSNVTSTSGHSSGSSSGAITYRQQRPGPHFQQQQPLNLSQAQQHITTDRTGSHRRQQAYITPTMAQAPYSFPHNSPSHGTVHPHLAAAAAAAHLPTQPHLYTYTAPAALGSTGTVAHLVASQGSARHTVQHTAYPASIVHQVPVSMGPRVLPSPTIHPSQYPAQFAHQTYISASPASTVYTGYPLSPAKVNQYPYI
Chain of STK33 (human) (Q9BYT3 whole entry, looked up): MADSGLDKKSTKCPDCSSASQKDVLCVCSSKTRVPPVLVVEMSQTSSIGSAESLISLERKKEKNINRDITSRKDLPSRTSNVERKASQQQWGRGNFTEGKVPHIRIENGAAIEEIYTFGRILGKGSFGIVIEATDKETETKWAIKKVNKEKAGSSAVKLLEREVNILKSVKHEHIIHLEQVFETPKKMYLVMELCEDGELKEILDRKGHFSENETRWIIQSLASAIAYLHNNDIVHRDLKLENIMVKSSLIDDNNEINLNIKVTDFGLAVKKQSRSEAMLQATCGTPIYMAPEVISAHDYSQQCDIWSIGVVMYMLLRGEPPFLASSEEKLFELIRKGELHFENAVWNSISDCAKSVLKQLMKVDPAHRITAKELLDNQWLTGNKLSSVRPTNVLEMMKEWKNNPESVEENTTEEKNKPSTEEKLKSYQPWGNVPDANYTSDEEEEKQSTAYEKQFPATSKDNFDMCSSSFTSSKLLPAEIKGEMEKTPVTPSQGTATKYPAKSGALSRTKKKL
Chain of STK17B (human) (O94768 whole entry, looked up): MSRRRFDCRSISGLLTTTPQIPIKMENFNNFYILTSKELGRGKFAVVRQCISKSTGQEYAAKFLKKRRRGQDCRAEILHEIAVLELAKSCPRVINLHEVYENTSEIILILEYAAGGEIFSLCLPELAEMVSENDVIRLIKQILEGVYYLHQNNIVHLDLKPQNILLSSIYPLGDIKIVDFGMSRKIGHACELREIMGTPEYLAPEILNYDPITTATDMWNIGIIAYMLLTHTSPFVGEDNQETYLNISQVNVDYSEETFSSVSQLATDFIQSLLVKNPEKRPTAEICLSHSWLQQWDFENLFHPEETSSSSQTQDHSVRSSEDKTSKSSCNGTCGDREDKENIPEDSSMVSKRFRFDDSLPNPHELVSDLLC

Turning to `O=C1NC(=O)/C(=C/c2c[nH]c(=O)c(-c3cnc4ccccc4c3)c2)S1`, the results for the IC50 at HIPK1 (human) [1] and at HIPK2 (human) were 228 nM and 178 nM, respectively.

For `CS(=O)(=O)Nc1ccc(-c2cc(/C=C3\SC(=O)NC3=O)c[nH]c2=O)cc1`, the IC50 at HIPK1 (human) [1] came to 527 nM; at PIM2 (human) [2] it was 214 nM; against HIPK2 (human), 258 nM; against PIM1 (human) [3] it was 151 nM.

On to `CCN1C(=O)CC(c2ccccc2)N(C2CCCC2)c2nc(Nc3ccc(C(=O)NC4CCN(C)CC4)cc3OC)ncc21` (configuration not stated), for which the kinase still bound, per cent of control at DCLK1 (human) worked out at 23%; on STK33 (human), 20%; on CAMK2A (human), 20%; at CAMK2D (human), 30%; on CAMK2G (human), 26%; on PLK1 (human) it was 0.55%. Also, the kinase still bound, per cent of control at MYLK (human) turned out to be 26%; on MKNK2 (human), 33%.

For `Nc1cccc(-c2cc(/C=C3\NC(=O)NC3=O)c[nH]c2=O)c1`, the IC50 against HIPK1 (human) [1] and at HIPK2 (human) was > 10000 nM each time.

Consider `CC(=O)Nc1ccc(-c2ccc(/C=C3\SC(=N)NC3=O)o2)c(O)c1`, for which the IC50 on PIM2 (human) [2] stood at 298 nM; against PIM1 (human) [3], 959 nM. For the same molecule, the kinase still bound, per cent of control on CLK2 (human) was 4.8%; at HIPK1 (human) [4], 2.6%; on RPS6KA4 KD2 (human) it was 29%; on MAPK15 (human) it was 0.4%; at TGFBR2 (human) it was 13%; on TAOK1 (human), 4%. Also, the kinase still bound, per cent of control on STK17A (human) amounted to 0.7%; on PIM2 (human) [5], 1.6%; on DAPK2 (human), 24%; at DYRK1B (human), 23%; at CAMKK1 (human), 30%; at CLK4 (human) it was 13%. The kinase still bound, per cent of control came out at 25% in [6]; 8.6% on TAOK3 (human); 2.2% at PIM3 (human); 3.9% on CDK7 (human); 3% at STK17B (human); 33% on MINK1 (human). In addition, the results for the kinase still bound, per cent of control on CLK1 (human), on PIM1 (human) [7] and at CSNK2A1 (human) were 16%, 1.6% and 32%, respectively.

For the molecule `Nc1ccc(-c2cc(/C=C3\SC(=O)NC3=O)c[nH]c2=O)cn1`, the IC50 came out at 500 nM against HIPK1 (human) [1] and 351 nM against HIPK2 (human).

As for `O=C1NC(=O)C(=Cc2ccc(-c3ccc(Cl)cc3)o2)C(=O)N1`, the kinase still bound, per cent of control on MAP2K3 (human) came out at 15%; on MAP2K4 (human), 14%.

With `O=C1NC(=O)/C(=C/c2c[nH]c(=O)c(-c3ccc(N4CCC(N5CCCC5)CC4)nc3)c2)S1`, the IC50 at HIPK1 (human) [1] was 6530 nM; against HIPK2 (human) it was 4900 nM.

As for `Nc1cccc(-c2cc(/C=C3\SC(=S)NC3=O)c[nH]c2=O)c1`, the IC50 against HIPK1 (human) [1] was 100 nM; on HIPK2 (human) it was 93 nM.

As for `O=C1NC(=O)/C(=C/c2c[nH]c(=O)c(-c3ccc(N4CCN(Cc5ccccc5)CC4)nc3)c2)S1`, the values for the half-inhibitory concentration (IC50) at HIPK1 (human) [1] and against HIPK2 (human) were 392 nM and 173 nM, respectively.

In the case of `CS(=O)(=O)Nc1ccc(-c2ccc(C=C3C(=O)NC(=O)NC3=O)o2)cc1`, the kinase still bound, per cent of control in assay [6] stood at 20%; at CAMKK2 (human), 34%.

As to `O=C1NC(=O)/C(=C/c2c[nH]c(=O)c(-c3cncc4ccccc34)c2)S1`, the IC50 on HIPK1 (human) [1] and against HIPK2 (human) was > 10000 nM throughout.

As to `O=C1NC(=O)/C(=C/c2c[nH]c(=O)c(-c3ccc(N4CCNCC4)nc3)c2)N1`, the IC50 against HIPK1 (human) [1] and on HIPK2 (human) was > 10000 nM throughout.

Consider `O=C1NC(=O)/C(=C/c2c[nH]c(=O)c(-c3ccc(N4CCNCC4)cc3)c2)S1`, for which the figures for the IC50 against HIPK1 (human) [1] and on HIPK2 (human) were 52 nM and 45 nM, respectively.

For the molecule `CCN1C(=O)CC(C(C)C)N(C2CCCC2)c2nc(Nc3ccc(C(=O)NC4CCN(C)CC4)cc3OC)ncc21` (configuration not stated), the kinase still bound, per cent of control at PTK2B (human) turned out to be 34%; at DCLK1 (human), 0.9%; on STK33 (human), 31%; at CAMK2A (human), 9.3%; on CAMK2D (human) it was 23%; at DCLK2 (human), 1.6%. Further, the kinase still bound, per cent of control at CAMK2G (human) amounted to 16%.

For the molecule `CS(=O)(=O)Nc1ccc(-c2ccc(/C=C3\SC(=N)NC3=O)o2)c(O)c1`, the IC50 is 1920 nM at PIM2 (human) [2] and 768 nM on PIM1 (human) [3]. Besides, the kinase still bound, per cent of control was 22% at HIPK1 (human) [4]; 30% at RPS6KA4 KD2 (human); 0.55% on MAPK15 (human); 1.6% at PIK3CG (human); 32% at TGFBR2 (human); 25% at STK17A (human). In addition, the kinase still bound, per cent of control on PIM2 (human) [5] was found to be 0.45%; on CSNK2A2 (human) it was 22%; in assay [6], 32%; on PIM3 (human), 4.8%; on CDK7 (human) it was 0.9%; at STK17B (human), 7.7%. In addition, the kinase still bound, per cent of control on MINK1 (human) amounted to 30%; at PIM1 (human) [7], 3.3%.

As for `N=C1NC(=O)/C(=C/c2c[nH]c(=O)c(-c3cccc(N)c3)c2)S1`, the IC50 was 317 nM on HIPK1 (human) [1] and 163 nM on HIPK2 (human).
